Measurements from US10022442B2, “Pyrazolopyrimidine compounds” (GlaxoSmithKline LLC, priority 2012, dated 2018).
Structures can show the parent of a compound that is named as a salt.

Legend:
Interferon-α = experiment: Induction of Interferon-α using fresh human whole blood (WB); assay type: cell-based; details: three donors, overnight incubation, cytokine released as % of 2 μM resiquimod control, read-out: mean pEC50 for IFNα (converted)
Experimental: (§1) Assay for the Induction of Interferon-α and TNF-α using Fresh Human Whole Blood (WB)
(§2) Compounds were prepared at 100× required concentration in DMSO in flat-bottom microtitre plates at a volume of 1.5 μL. Columns 1-10 contained a 1 in 4 serial dilution of the test compound. Included on each plate was a serial dilution of the TLR7/8 agonist resiquimod as a standard and Column 11 contained 1.5 μl of 200 μM resiquimod (giving a 2 μM final concentration, used to define the approximate maximal response to resiquimod). Each compound was assayed in duplicate for each donor.
(§3) Incubation and Assays for Interferon-α and TNF-α
(§4) Blood samples from three human donors were collected into sodium heparin (10 U/ml). 150 μl of whole Blood was dispensed into Col 1 to 11 of assay plates containing 1.5 μl of test compound or standard in DMSO. Plates were placed in an incubator overnight (37° C., 95% air, 5% CO2). Following the overnight incubation, plates were removed from the incubator & mixed on an orbital shaker for approximately 1 minute. 100 μl of 0.9% saline was added to each well and the plates mixed again on an orbital shaker. Plates were then centrifuged (2500 rpm, 10 mins), after which a sample of plasma was removed using a Biomek FX and assayed for both IFN-α and TNF-α using the MSD (Mesoscale Discovery) electrochemiluminescence assay platform. The IFN-α assay was carried out similarly to that described above. The TNF-α assay was carried out as per kit instructions (Cat No K111BHB).
(§5) Cytokine released was expressed as a percentage of the 2 μM resiquimod control (column 11). This percentage was plotted against compound concentration and the pEC50 for the response determined by non-linear least squares curve fitting. For the IFN-α responses, generally a 4 parameter logistic model was selected. For the TNF responses where a clear maximum response was obtained (i.e. a well defined plateau in the response was observed) then a 4 parameter model was generally used. If the upper asymptote of the curve wasn't well defined then the curve fitting was generally constrained to a maximal response of 100% (i.e. to the response to 2 μM resiquimod) or to the response of the highest concentration tested if this was greater than the resiquimod response. Some curves were bell shaped for one or both cytokines and the cytokine data on the down slope of the bell shaped response (i.e. concentrations above those giving the maximal response) were generally excluded from the fit, usually with the exception of the concentration immediately above the peak response. Curve fitting thus concentrated on the up slope of the dose response curve.

TNF-α = experiment: Induction of TNF-α using fresh human whole blood (WB); assay type: cell-based; details: three donors, overnight incubation, cytokine released as % of 2 μM resiquimod control, read-out: mean pEC50 for TNF-α (converted)
Experimental: as §1, §2, §3, §4, §5

Compound | EC50 (Interferon-α) | EC50 (TNF-α)
CCCCc1nc(N)c2[nH]nc(CCCCCCCN3CCCCC3)c2n1 [Example 7, 5-Butyl-3-(7-(piperidin-1-yl)heptyl)-1H-pyrazolo[4,3-d]pyrimidin-7-amine] | ≤ 1.26 µM | ≥ 3.98 µM
CCCCc1nc(N)c2[nH]nc(CCCCCCN3CCCCCC3)c2n1 [Example 9, 3-(6-(Azepan-1-yl)hexyl)-5-butyl-1H-pyrazolo[4,3-d]pyrimidin-7-amine] | ≤ 1.26 µM | ≥ 3.98 µM
CCCCc1nc(N)c2[nH]nc(CCCCCN3CCCCCC3)c2n1 [Example 10, 3-(5-(Azepan-1-yl)pentyl)-5-butyl-1H-pyrazolo[4,3-d]pyrimidin-7-amine] | ≤ 1.26 µM | ≥ 3.98 µM
CCCCc1nc(N)c2[nH]nc(CCCCCCN3CC[C@H](F)C3)c2n1 [Example 11, (S)-5-Butyl-3-(6-(3-fluoropyrrolidin-1-yl)hexyl)-1H-pyrazolo[4,3-d]pyrimidin-7-amine] | ≤ 1.26 µM | ≥ 3.98 µM
CCCCc1nc(N)c2[nH]nc(CCCCCN3CC[C@H](F)C3)c2n1 [Example 12, (S)-5-Butyl-3-(5-(3-fluoropyrrolidin-1-yl)pentyl)-1H-pyrazolo[4,3-d]pyrimidin-7-amine] | ≤ 1.26 µM | ≥ 3.98 µM
CCCCc1nc(N)c2[nH]nc(CCCCCCN3CC[C@@H](F)C3)c2n1 [Example 13, (R)-5-Butyl-3-(6-(3-fluoropyrrolidin-1-yl)hexyl)-1H-pyrazolo[4,3-d]pyrimidin-7-amine formate] | ≤ 1.26 µM | ≥ 3.98 µM
CCCCc1nc(N)c2[nH]nc(CCCCCN3CC[C@@H](F)C3)c2n1 [Example 14, (R)-5-Butyl-3-(5-(3-fluoropyrrolidin-1-yl)pentyl)-1H-pyrazolo[4,3-d]pyrimidin-7-amine] | ≤ 1.26 µM | ≥ 3.98 µM
CCCCc1nc(N)c2[nH]nc(CCCCCCN3CCC(O)CC3)c2n1 [Example 15, 1-(6-(7-Amino-5-butyl-1H-pyrazolo[4,3-d]pyrimidin-3-yl)hexyl)piperidin-4-01] | ≤ 1.26 µM | ≥ 3.98 µM
CCCCc1nc(N)c2[nH]nc(CCCCCN3CCC(O)CC3)c2n1 [Example 16, 1-(5-(7-Amino-5-butyl-1H-pyrazolo[4,3-d]pyrimidin-3-yl)pentyl)piperidin-4-01] | ≤ 1.26 µM | ≥ 3.98 µM
CCCCc1nc(N)c2[nH]nc(CCCCCCN3CCC(F)CC3)c2n1 [Example 17, 5-Butyl-3-(6-(4-fluoropiperidin-1-yl)hexyl)-1H-pyrazolo[4,3-d]pyrimidin-7-amine formate] | ≤ 1.26 µM | ≥ 3.98 µM
CCCCc1nc(N)c2[nH]nc(CCCCCN3CCC(F)CC3)c2n1 [Example 18, 5-Butyl-3-(5-(4-fluoropiperidin-1-yl)pentyl)-1H-pyrazolo[4,3-d]pyrimidin-7-amine] | ≤ 1.26 µM | ≥ 3.98 µM

The remaining lines, values ahead:

EC50 (Interferon-α) | EC50 (TNF-α) | Compound
≤ 1.26 µM | ≥ 3.98 µM | CCCCc1nc(N)c2[nH]nc(CCCCCCN3CCCCC3)c2n1 [Example 1, 5-Butyl-3-(6-(piperidin-1-yl)hexyl)-1H-pyrazolo[4,3-d]pyrimidin-7-amine formate]
≤ 1.26 µM | ≥ 3.98 µM | COCCc1nc(N)c2[nH]nc(CCCCCCN3CCCCC3)c2n1 [Example 2, 5-(2-Methoxyethyl)-3-(6-(piperidin-1-yl)hexyl)-1H-pyrazolo[4,3-d]pyrimidin-7-amine]
≤ 1.26 µM | ≥ 3.98 µM | COCCc1nc(N)c2[nH]nc(CCCCCCN3CCCC3)c2n1 [Example 4, 5-(2-Methoxyethyl)-3-(6-(pyrrolidin-1-yl)hexyl)-1H-pyrazolo[4,3-d]pyrimidin-7-amine]
≤ 1.26 µM | ≥ 3.98 µM | CCCCc1nc(N)c2[nH]nc(CCCCCN3CCCCC3)c2n1 [Example 5, 5-Butyl-3-(5-(piperidin-1-yl)pentyl)-1H-pyrazolo[4,3-d]pyrimidin-7-amine]
≤ 1.26 µM | ≥ 3.98 µM | CCCCc1nc(N)c2[nH]nc(CCCCCN3CCCC3)c2n1 [Example 6, 5-Butyl-3-(5-(pyrrolidin-1-yl)pentyl)-1H-pyrazolo[4,3-d]pyrimidin-7-amine]
≤ 1.26 µM | ≥ 3.98 µM | CCCCc1nc(N)c2[nH]nc(CCCCCCCN3CCCC3)c2n1 [Example 8, 5-Butyl-3-(7-(pyrrolidin-1-yl)heptyl)-1H-pyrazolo[4,3-d]pyrimidin-7-amine]
